Here are results for 13 compounds from patent publication US20160287589A1, “SUBSTITUTED-IMIDAZOPYRIDAZINES” (BAYER PHARMA AKTIENGESELLSCHAFT, priority 2013, published 2016).

SMILES strings stand for the structures.

T1 sequence (Q9BUB5 1-424 isoform Q9BUB5-2 T344D): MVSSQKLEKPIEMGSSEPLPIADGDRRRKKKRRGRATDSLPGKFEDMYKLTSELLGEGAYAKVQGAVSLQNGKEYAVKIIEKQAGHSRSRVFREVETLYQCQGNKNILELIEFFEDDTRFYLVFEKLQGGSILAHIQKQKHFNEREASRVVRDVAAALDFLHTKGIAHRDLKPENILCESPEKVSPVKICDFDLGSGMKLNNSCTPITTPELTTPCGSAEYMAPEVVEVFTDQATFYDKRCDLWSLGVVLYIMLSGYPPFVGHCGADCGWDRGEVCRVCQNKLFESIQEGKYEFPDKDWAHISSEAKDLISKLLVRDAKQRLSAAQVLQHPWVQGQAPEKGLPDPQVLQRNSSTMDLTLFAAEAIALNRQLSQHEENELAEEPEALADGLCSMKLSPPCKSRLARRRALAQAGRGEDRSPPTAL

The first assay has as its target T1, MKNK1 (Homo sapiens, UniProt Q9BUB5, T385D).
T1 construct: GST (N); purchased Carna Biosciences 02-145; host or cells: insect cells (baculovirus expression system)
The experiment in a line: MKNK1 kinase high ATP assay (TR-FRET-based). Format: biochemical. The note with it: Table 2a; 2 mM ATP, 15 min preincubation. The method, then: MKNK1 Kinase High ATP Assay
MKNK1-inhibitory activity at high ATP of compounds of the present invention after their preincubation with MKNK1 was quantified employing the TR-FRET-based MKNK1 high ATP assay as described in the following paragraphs.
A recombinant fusion protein of Glutathione-S-Transferase (GST, N-terminally) and human full-length MKNK1 (amino acids 1-424 and T344D of accession number BAA 19885.1), expressed in insect cells using baculovirus expression system and purified via glutathione sepharose affinity chromatography, was purchased from Carna Biosciences (product no 02-145) and used as enzyme. As substrate for the kinase reaction the biotinylated peptide biotin-Ahx-IKKRKLTRRKSLKG (C-terminus in amide form) was used, which can be purchased e.g. from the company Biosyntan (Berlin-Buch, Germany).
For the assay 50 nL of a 100 fold concentrated solution of the test compound in DMSO was pipetted into a black low volume 384 well microtiter plate (Greiner Bio-One, Frickenhausen, Germany), 2 μL of a solution of MKNK1 in aqueous assay buffer [50 mM HEPES pH 7.5, 5 mM magnesium chloride, 1.0 mM dithiothreitol, 0.005% (v/v) Nonidet-P40 (Sigma)] was added and the mixture was incubated for 15 min at 22° C. to allow pre-binding of the test compounds to the enzyme before the start of the kinase reaction. Then the kinase reaction was started by the addition of 3 μL of a solution of adenosine-tri-phosphate (ATP, 3.3 mM=>final conc. in the 5 μL assay volume is 2 mM) and substrate (0.1 μM=>final conc. in the 5 μL assay volume is 0.06 μM) in assay buffer and the resulting mixture was incubated for a reaction time of 30 min at 22° C. The concentration of MKNK1 was adjusted depending of the activity of the enzyme lot and was chosen appropriate to have the assay in the linear range, typical concentrations were in the range of 0.003 μg/mL. The reaction was stopped by the addition of 5 μL of a solution of TR-FRET detection reagents (5 nM streptavidine-XL665 [Cisbio Bioassays, Codolet, France] and 1 nM anti-ribosomal protein S6 (pSer236)-antibody from Invitrogen [#44921G] and 1 nM LANCE EU-W1024 labeled ProteinG [Perkin-Elmer, product no. AD0071]) in an aqueous EDTA-solution (100 mM EDTA, 0.1% (w/v) bovine serum albumin in 50 mM HEPES pH 7.5).
The resulting mixture was incubated for 1 h at 22° C. to allow the formation of complex between the phosphorylated biotinylated peptide and the detection reagents. Subsequently the amount of phosphorylated substrate was evaluated by measurement of the resonance energy transfer from the Eu-chelate to the streptavidine-XL. Therefore, the fluorescence emissions at 620 nm and 665 nm after excitation at 350 nm were measured in a TR-FRET reader, e.g. a Rubystar (BMG Labtechnologies, Offenburg, Germany) or a Viewlux (Perkin-Elmer). The ratio of the emissions at 665 nm and at […] was taken as the measure for the amount of phosphorylated substrate. The data were normalised (enzyme reaction without inhibitor=0% inhibition, all other assay components but no enzyme=100% inhibition).
For orientation: In TR-FRET formats the signal depends on donor and acceptor labels being close together.
The IC50 is the concentration that gives 50% inhibition. A high value points to lower potency. The compound `CC(C)(C)C(=O)N1CCC[C@H]1CCOc1ccc2ncc(-c3cc4ccccc4o3)n2n1` [Example I-3, 1-[(2S)-2-(2-{[3-(1-Benzofuran-2-yl)imidazo[1,2-b]pyridazin-6-yl]oxy}ethyl)-pyrrolidin-1-yl]-2,2-dimethylpropan-1-one] had an IC50 of 4.8 nM.

As for `COc1cccc2oc(-c3cnc4ccc(OC[C@H]5CN(C(=O)C6CC6)CCO5)nn34)cc12` [Example I-41, Cyclopropyl[(2R)-2-({[3-(4-methoxy-1-benzofuran-2-yl)imidazo[1,2-b]pyridazin-6-yl]oxy}methyl)morpholin-4-yl]methanone], the IC50 stood at 7 nM.

Staying with this assay, now noted: Table 2b; 2 mM ATP, 15 min preincubation.
`COc1ccc2ncc(-c3cc4c(N5CCN[C@@H](C)C5)cccc4o3)n2n1` [II-40, 6-methoxy-3-{4-[(3S)-3-methylpiperazin-1-yl]-1-benzofuran-2-yl}imidazo[1,2-b]pyridazine] yielded an IC50 of 4.4 nM. This counts as single-digit nanomolar.

Compound `C[C@H]1CN(c2cccc3oc(-c4cnc5ccc(OCC(F)(F)F)nn45)cc23)CCN1` [II-41, 3-{4-[(3S)-3-methylpiperazin-1-yl]-1-benzofuran-2-yl}-6-(2,2,2-trifluoroethoxy)im-idazo[1,2-b]pyridazine] displayed a half-inhibitory concentration (IC50) of 5.5 nM.

For `C[C@H]1CN(c2cccc3oc(-c4cnc5ccc(OC[C@@H]6CCC(=O)N6)nn45)cc23)CCN1` [II-42, (5S)-5-{[(3-{4-[(3S)-3-methylpiperazin-1-yl]-1-benzofuran-2-yl}imidazo[1,2-b]pyridazin-6-yl)oxy]methyl}pyrrolidin-2-one], half-maximal inhibition (IC50) required 5.8 nM.

With `C[C@H]1CN(c2cccc3oc(-c4cnc5ccc(OCCCS(C)(=O)=O)nn45)cc23)CCN1` [II-52, 3-{4-[(3S)-3-methylpiperazin-1-yl]-1-benzofuran-2-yl}-6-[3-(methylsulfonyl)pro-poxy]imidazo[1,2-b]pyri-dazine], inhibition was half-maximal at 7.1 nM (IC50). This IC50 and that of the compound before are within 1.5-fold of each other.

`COc1ccc2ncc(-c3cc4c(N5CCNC(C)(C)C5)cccc4o3)n2n1` [II-60, 3-[4-(3,3-dimethylpiperazin-1-yl)-1-benzofuran-2-yl]-6-methoxy-imidazo[1,2-b]pyridazine] showed an IC50 of 0.3 nM.

Staying with this assay, now noted: Table 2c; 2 mM ATP, 15 min preincubation.
Consider `C[C@@H](N)COc1ccc2ncc(-c3cc4c(N5CCOC[C@@H]5C)nccc4o3)n2n1` [III-5, (2R)-1-[(3-{4-[(3S)-3-Methylmorpholin-4-yl]furo[3,2-c]pyridin-2-yl}imidazo-[1,2-b]pyridazin-6-yl)oxy]propan-2-amine], for which the 50% inhibitory concentration (IC50) worked out at 10.1 nM. That is a double-digit nanomolar value.

In turn, `C[C@@H](N)COc1ccc2ncc(-c3cc4c(N5CCO[C@@H](C)C5)nccc4o3)n2n1` [III-6, (2R)-1-[(3-{4-[(2S)-2-Methylmorpholin-4-yl]furo[3,2-c]pyridin-2-yl}imidazo-[1,2-b]pyridazin-6-yl)oxy]propan-2-amine] gave a 50% inhibitory concentration (IC50) of 8.8 nM.

Compound `C[C@H](N)COc1ccc2ncc(-c3cc4c(N5CCOC[C@@H]5C)nccc4o3)n2n1` [III-28, (2S)-1-[(3-{4-[(3S)-3-Methylmorpholin-4-yl]furo[3,2-c]pyridin-2-yl}imidazo-[1,2-b]pyridazin-6-yl)oxy]propan-2-amine] yielded an IC50 of 9.4 nM.

Take `C[C@H](N)COc1ccc2ncc(-c3cc4c(N5CCO[C@@H](C)C5)nccc4o3)n2n1` [III-29, (2S)-1-[(3-{4-[(2S)-2-Methylmorpholin-4-yl]furo[3,2-c]pyridin-2-yl}imidazo-[1,2-b]pyridazin-6-yl)oxy]propan-2-amine]: half-maximal inhibition (IC50) required 4.8 nM. This IC50 is about 2-fold lower than that of the compound before.

In turn, `C[C@H]1COCCN1c1nccc2oc(-c3cnc4ccc(OCCCS(C)(=O)=O)nn34)cc12` [III-59, 3-{4-[(3S)-3-Methylmorpholin-4-yl]furo[3,2-c]pyridin-2-yl}-6-[3-(methyl-sulfonyl)propoxy]imidazo[1,2-b]pyridazine] had an IC50 of 4.9 nM.

Turning to `C[C@H]1CN(c2nccc3oc(-c4cnc5ccc(OCCCS(C)(=O)=O)nn45)cc23)CCO1` [III-60, 3-{4-[(2S)-2-Methylmorpholin-4-yl]furo[3,2-c]pyridin-2-yl}-6-[3-(methyl-sulfonyl)propoxy]imidazo[1,2-b]pyridazine], the 50% inhibitory concentration (IC50) was 2.8 nM.
